In PMC8716824, “Design, Synthesis and Anti-Lung Cancer Evaluation of 1, 2, 3-Triazole Tethered Dihydroartemisinin-Isatin Hybrids” (Frontiers in Pharmacology, 2021):
Read-outs that look alike come from different tables or passages of the source.

Columns and labels:
[1] = system: cisplatin-resistant A549 (A549/DDP) lung cancer cells; test: MTT antiproliferative assay, A549/DDP; assay type: cell-based; conditions: A549/DDP
Method: (§1) The antiproliferative activity of 1,2,3-triazole tethered dihydroartemisinin-isatin hybrids 8a-c and 9a-k against A549, multidrug-resistant A549/DOX and A549/DDP lung cancer cell lines as well as cytotoxicity towards mouse embryonic fibroblast cells NIH/3T3 were assessed by 3-(4,5-dimethylthiazol-2-yl)-2,5-diphenyltetrazolium bromide (MTT) assay, and half maximal inhibitory concentration (IC50) values were listed in Table 2. A549, A549/DOX, and A549/DDP lung cancer cells (2 × 10^3) were plated in each well of a 96-well plate and were allowed to adhere and spread for 24 h. The 1,2,3-triazole tethered dihydroartemisinin-isatin hybrids 8a-c and 9a-k were added to a final concentration of 100 μM, and the cells were cultured for 24 h at 37°C. 3-(4,5-dimethyl-2-thiazolyl)-2,5-diphenyltetrazolium bromide (MTT) solution (10 µL) was added to each well, and the cultures were incubated for an additional 4 h. A further 100 µL of […] was added and incubation continued overnight. The absorbance at 540 nm was determined in each well with a 96-well plate reader. The growth of the treated cells was compared with that of untreated cells.

A549 lung cancer cells = test: MTT antiproliferative assay, A549; assay type: cell-based; conditions: Homo sapiens
Method: as §1

[2] = Stability in human liver microsomes; assay type: in vitro ADME
Method: (§2) The metabolic stability of selected hybrids 8a,c and 9i was assessed in mouse and human microsomes, and the results were listed in Table 3.

[3] = system: doxorubicin-resistant A549 (A549/DOX) lung cancer cells; test: MTT antiproliferative assay, A549/DOX; assay type: cell-based; conditions: Homo sapiens
Method: as §1

[4] = system: mouse embryonic fibroblast cells NIH/3T3; test: MTT cytotoxicity assay, NIH/3T3; assay type: cell-based; conditions: for SI (selectivity index): IC50(NIH/3T3)/IC50(A549); for IC50: Mus musculus, NIH3T3, cytotoxicity, NIH/3T3 cells, MTT (called CC50 in method)
Method: The antiproliferative activity of 1,2,3-triazole tethered dihydroartemisinin-isatin hybrids 8a-c and 9a-k against A549, multidrug-resistant A549/DOX and A549/DDP lung cancer cell lines as well as cytotoxicity towards mouse embryonic fibroblast cells NIH/3T3 were assessed by 3-(4,5-dimethylthiazol-2-yl)-2,5-diphenyltetrazolium bromide (MTT) assay, and half maximal inhibitory concentration (IC50) values were listed in Table 2.
The cytotoxicity (CC50) of the synthesized 1,2,3-triazole tethered dihydroartemisinin-isatin hybrids 8a-c and 9a-k were examined by the MTT assay in mouse embryonic fibroblast cells NIH/3T3. The compounds were dissolved in DMSO with concentrations from 1,024 to 1 μg/ml. The NIH/3T3 cells were maintained in culture medium at 37°C under 5% CO2 atmosphere. Cells were seeded in 96-well plates (1 × 10^4 cell per well) and allowed to recover for 24 h. After 72 h of exposure, cells were harvested and cell viability was assessed by MTT assay. The CC50 values were calculated by Bliss analy.

[5] = Stability in mouse liver microsomes; assay type: in vitro ADME
Method: as §2

[6] = system: A549, A549/DOX and A549/DDP lung cancer cell lines; test: MTT antiproliferative assay, ranges pooled over lung cancer cell lines; assay type: cell-based
Method: as §1

[7] = Pharmacokinetics in CD-1 mice; assay type: in vivo; conditions: mouse, plasma, 30 mg/kg, single intravenous administration; for clearance: read-out: Cl (clearance rate) (converted); for bioavailability: read-out: F (bioavailability); for Tmax: read-out: tmax (peak time) (converted)
Method: The pharmacokinetic behavior of hybrids 8a,c was determined in CD-1 mice model by single intravenous administration with dose of 30 mg/kg.
CD-1 mice (20–25 g) were used in the pharmacokinetic study, and each treatment group had 3 mice which were dosed with hybrids 8a,c suspension at 30 mg/kg by single intravenous administration. Compounds were suspended in 0.5% CMC for iv, and blood was collected from the jugular vein of each mouse at the following time points: 0.25, 0.5, 1, 2, 4, 6, 8 and 24 h after intravenous administration. Total area under the concentration time curve (AUC), the elimination half-time (t1/2), the peak concentration (Cmax) and the time to reach peak concentration (Tmax) of samples were determined directly from the experimental data using WinNonlin V6.2.1.

[8] = Stability in mouse/human microsomes, pooled range; assay type: in vitro ADME
Method: as §2

[9] = Homo sapiens, range over A549 and A549/DOX, read-out: IC50, range over A549 and A549/DOX
[10] = range over the three lung cancer cell lines, read-out: IC50, range over A549, A549/DOX and A549/DDP

Row | SMILES | IC50 [1] | IC50 (A549 lung cancer cells) | Liver microsomes, Human [2] | IC50 [3] | SI (selectivity index) [4] | IC50 [4] | Liver microsomes, Mouse [5] | IC50 [6, 9] | IC50 [6, 10] | AUC [7] | Cmax [7] | half-life [7] | clearance [7] | bioavailability [7] | Tmax [7] | Liver microsomes, range over mouse and human [8]
1 | C[C@@H]1CC[C@H]2[C@@H](C)C(OCc3cn(CCN4C(=O)C(=NO)c5cc(F)ccc54)nn3)O[C@@H]3O[C@@]4(C)CC[C@@H]1[C@]32OO4 (stereo partly drawn) [9i, 5-fluoro-3-(hydroxyimino)-1-(2-(4-((((3R,5aS,6R,8aS,9R,12R,12aR)-3,6,9-trimethyldecahydro-12H-3,12-epoxy[1,2]dioxepino[4,3-i]isochromen-10-yl)oxy)methyl)-1H-1,2,3-triazol-1-yl)ethyl)indolin-2-one] | 14.3 µM | 9.1 µM | 60% | 15.9 µM | >11.0 | > 100 µM | 46% | 7.54 to 15.9 µM | 9.1 to 15.9 µM |  |  |  |  |  |  | 
2 | C[C@@H]1CC[C@H]2[C@@H](C)C(OCc3cn(CCN4C(=O)C(=O)c5cc(F)ccc54)nn3)O[C@@H]3O[C@@]4(C)CC[C@@H]1[C@]32OO4 (stereo partly drawn) [8c, 5-fluoro-1-(2-(4-((((3R,5aS,6R,8aS,9R,12R,12aR)-3,6,9-trimethyldecahydro-12H-3,12-epoxy[1,2]dioxepino[4,3-i]isochromen-10-yl)oxy)methyl)-1H-1,2,3-triazol-1-yl)ethyl)indoline-2,3-dione] | 8.77 µM | 7.54 µM | 83% | 9.89 µM | >13.2 | > 100 µM | 71% | 7.54 to 15.9 µM | 7.54 to 12.1 µM | 654 ng·h/mL | 12.5 µM | 4.2 h | 52.7 mL/min/kg | 27.5% | 0.2 h | 68–83%
3 | C[C@@H]1CC[C@H]2[C@@H](C)C(OCc3cn(CCN4C(=O)C(=O)c5ccccc54)nn3)O[C@@H]3O[C@@]4(C)CC[C@@H]1[C@]32OO4 (stereo partly drawn) [8a, 1-(2-(4-((((3R,5aS,6R,8aS,9R,12R,12aR)-3,6,9-trimethyldecahydro-12H-3,12-epoxy[1,2]dioxepino[4,3-i]isochromen-10-yl)oxy)methyl)-1H-1,2,3-triazol-1-yl)ethyl)indoline-2,3-dione] | 10.7 µM | 8.32 µM | 68% | 12.1 µM | >12.0 | > 100 µM | 77% | 7.54 to 15.9 µM | 7.54 to 12.1 µM | 883 ng·h/mL | 6.4 µM | 3.7 h | 38.5 mL/min/kg | 35.6% | 0.2 h | 68–83%
